Source: publication PMC11005379, “Control of three-carbon amino acid homeostasis by promiscuous importers and exporters in Bacillus subtilis: role of the “sleeping beauty” amino acid exporters” (mBio, 2024)

Legend:
Assay type in all cases: cell-based
AexA (YdeD) = biological target: T1, AexA (YdeD) (Bacillus subtilis, UniProt P96661); experiment: intracellular accumulation of radiolabelled substrate, overexpressing against deletion strain; conditions: labelled compound; 30 mM beta-alanine; C-Glc minimal medium; export; intact cells
T1 construct: native full-length EamA family exporter in intact B. subtilis cells; chromosomal gene overexpressed by aerA Y179D (GP4117) against aerA Y179D deltaaexA (GP3958)
T1 sequence (P96661 1-319): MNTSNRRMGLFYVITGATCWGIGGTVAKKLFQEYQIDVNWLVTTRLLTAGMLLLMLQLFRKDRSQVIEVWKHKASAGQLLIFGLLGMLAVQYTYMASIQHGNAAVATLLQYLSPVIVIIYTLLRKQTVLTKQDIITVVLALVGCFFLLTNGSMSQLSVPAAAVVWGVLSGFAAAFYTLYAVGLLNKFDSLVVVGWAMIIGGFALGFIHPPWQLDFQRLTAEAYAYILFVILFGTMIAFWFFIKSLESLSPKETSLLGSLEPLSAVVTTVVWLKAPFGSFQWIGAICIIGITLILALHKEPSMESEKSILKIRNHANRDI

AlaP = biological target: T2, AlaP (Bacillus subtilis, UniProt O34618); experiment: radiolabelled substrate uptake, wild type against deletion strain; conditions: labelled compound, 30 mM beta-alanine, C-Glc minimal medium, intact cells
T2 construct: gene ytnA; native full-length APC superfamily permease in intact B. subtilis cells
T2 sequence (O34618 1-463): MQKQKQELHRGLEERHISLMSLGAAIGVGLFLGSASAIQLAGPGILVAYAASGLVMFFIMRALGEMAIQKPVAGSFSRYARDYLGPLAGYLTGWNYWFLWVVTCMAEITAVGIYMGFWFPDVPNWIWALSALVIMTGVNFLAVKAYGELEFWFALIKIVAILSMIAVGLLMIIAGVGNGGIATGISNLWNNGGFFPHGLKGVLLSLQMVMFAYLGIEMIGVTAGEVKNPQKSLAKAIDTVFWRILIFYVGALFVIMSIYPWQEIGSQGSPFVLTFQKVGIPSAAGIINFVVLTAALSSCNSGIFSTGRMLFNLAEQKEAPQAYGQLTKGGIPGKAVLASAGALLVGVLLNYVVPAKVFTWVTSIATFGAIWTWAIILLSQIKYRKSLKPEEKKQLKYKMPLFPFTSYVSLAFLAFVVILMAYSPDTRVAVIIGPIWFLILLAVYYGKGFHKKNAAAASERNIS

AimA = biological target: T3, AimA (Bacillus subtilis, UniProt Q45577); experiment: as above; conditions: labelled compound, 30 mM beta-alanine, C-Glc minimal medium, intact cells
T3 construct: native full-length APC superfamily permease in intact B. subtilis cells; wild type 168 against deltaaimA (GP3590)
T3 sequence (Q45577 1-539): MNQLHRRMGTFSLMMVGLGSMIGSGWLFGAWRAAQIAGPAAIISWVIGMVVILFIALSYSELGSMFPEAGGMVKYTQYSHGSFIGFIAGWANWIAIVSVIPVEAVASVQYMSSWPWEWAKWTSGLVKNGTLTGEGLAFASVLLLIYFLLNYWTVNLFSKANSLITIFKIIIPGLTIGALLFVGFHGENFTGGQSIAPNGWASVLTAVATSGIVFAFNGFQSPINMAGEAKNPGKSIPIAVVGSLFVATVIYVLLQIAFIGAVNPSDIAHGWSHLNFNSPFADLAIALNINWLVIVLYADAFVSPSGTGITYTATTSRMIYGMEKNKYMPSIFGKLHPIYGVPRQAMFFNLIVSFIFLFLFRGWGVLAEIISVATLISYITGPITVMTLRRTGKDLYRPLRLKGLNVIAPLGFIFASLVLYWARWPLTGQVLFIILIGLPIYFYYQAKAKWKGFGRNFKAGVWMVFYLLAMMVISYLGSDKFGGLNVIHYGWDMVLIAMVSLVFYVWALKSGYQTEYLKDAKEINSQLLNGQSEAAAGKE

For `NCCC(=O)O` [β-alanine], the “intracellular accumulation of radiolabelled substrate, overexpressing against de” value (AexA (YdeD)) was “clearly demonstrates that AexA indeed acts as an exporter for β-alanine”, the “radiolabelled substrate uptake, wild type against deletion strain” value (AlaP) was “a severe reduction was observed in the alaP and aimA mutants” and the “radiolabelled substrate uptake, wild type against deletion strain” value (AimA) was “a severe reduction was observed in the alaP and aimA mutants”.
